The text below walks through data of patent US20250295619A1, “Use of Salvianolic Acid E in the Preparation of Drugs Targeting Senescent Cells, Inhibiting Tumors or Extending Lifespan” (Shanghai Institute of Nutrition and Health, Chinese Academy …, priority 2024, published 2025).

In test [1] the test system is PC3/PSC27 transplanted tumors. Briefly: PC3/PSC27 xenograft tumor volume in NOD/SCID mice. To be noted: single agent. Type of test: in vivo, mouse. The procedure: Every two weeks was a dosing cycle, and MIT (mitoxantrone) was intraperitoneally administered to the mice on the first day of the 3rd/5th/7th weeks. From the first day of the 5th week, the mice were intraperitoneally administered with SAE, […]. After the 8-week course of treatment, the mice were dissected for pathological identification and expression analysis.
All experimental mouse experiments were carried out in strict accordance with the relevant regulations of the Institutional Animal Care and Use Committee (IACUC), Shanghai Institutes for Biological Sciences, Chinese Academy of Sciences. Immuno-deficient mice (NOD-SCID mice, ICR) (body weight about 25 g) aged 6-8 weeks were used for animal experiments related to the present patent. Stromal cells PSC27 and epithelial cells PC3 were mixed at a predetermined ratio of 1:4, and each graft contained 1.25×10^6 cells for tissue remodeling. The xenograft tumors were implanted into mice by subcutaneous transplantation, and the animals were euthanized 8 weeks after the end of the transplantation surgery. Tumor volume was calculated according to the following formula: V=(π/6)×((1+w)/2)3 (V, volume; l, length; w, width).
In a preclinical treatment trial, subcutaneously transplanted mice were fed with a standard experimental diet, after 2 weeks chemotherapy drugs mitoxantrone (MIT, dose: 0.2 mg/kg) and/or SAE (500 μl, dose: 10 mg/kg) via intraperitoneal administration. The time points were: the former was administrated on the first day of the 3rd, 5th and 7th weeks, and the latter was administrated on the first day of the 5th and 7th weeks. A total of 3 cycles of MIT administration were carried out throughout the course of treatment, and each cycle lasted for 2 weeks. After the course of treatment, mouse tumors were harvested for volume measurement and histological analysis. Each mouse cumulatively received 0.6 mg/kg body weight of MIT and 30 mg/kg body weight of SAE. In order to cause systemic expression of SASP factors induced by chemotherapy, MIT was administered to mice through intravenous infusion according to the above steps and sequence, but the dose was reduced to 0.1 mg/kg body weight/each time (the cumulative dose of MIT received in the whole course of treatment was 0.3 mg/kg body weight) to reduce drug-related toxicity. The chemotherapy experiment ended at the end of the 8th week, and the mice were dissected immediately after sacrifice, and the xenograft tumors were collected and used for pathological system analysis.

The next test concerns aged C57BL/6 mice. Briefly: Lifespan study in aged C57BL/6 mice. To be noted: administered from 24-27 months of age, every two weeks. Type of test: in vivo, mouse. The protocol: Starting at 24 to 27 months of age, C57BL/6 mice received intraperitoneal administration of vehicle or SAE every two weeks (n=80 for vehicle group; n=91 for SAE group). The median survival of animals in each group was calculated and indicated. ****, P<0.0001.
Starting at 24 to 27 months of age, C57BL/6 mice received intraperitoneal administration of vehicle or SAE every two weeks (n=80 for vehicle group; n=91 for SAE group). The median lifetime survival of animals in each group was calculated and indicated. ****, P<0.0001.
For the cell transplantation study, the inventors obtained […] male C57BL/6 mice by serial rearing in the SPF animal platform, with 4 to 5 animals per cage. The inventors first sorted the mice by body weight from low to high, and then selected mice with similar body weights. Next, the mice were assigned to senescence (SEN) or control (CTRL) transplant treatment at each interval using a random number generator, while the middle mice were assigned to the other treatment, so that the body weights of the senescence and control transplant mice were matched. One month after cell transplantation, when the mice were 18 months old, physical function tests were performed. After that, no further testing was done on the mice other than checking their cages. The earliest deaths occurred approximately 2 months after the last physical function test. […]

On to `O=C(/C=C/c1ccc(O)c(O)c1/C(=C\c1ccc(O)c(O)c1)C(=O)O[C@H](Cc1ccc(O)c(O)c1)C(=O)O)O[C@H](Cc1ccc(O)c(O)c1)C(=O)O` [SAE, salvianolic acid E], for which the “tumor shrinkage by the agent itself” value in test [1] is “did not cause tumor shrinkage”. Besides, in the test on aged C57BL/6 mice, the “risk of death HR (SAE group/vehicle group)” value is recorded as 0.3249.
